# Literature values, collected in patent US20230330230A1, “SENSITISER FOR CANCER TREATMENT” (KORTUC INC, priority 2020, published 2023).
# Columns and labels:
# [1] = tested on: prostate cancer (PC-3) cell line
# [2] = tested on: osteosarcoma (HS-Os-1) cell line
# [3] = 0.1 mM H2O2 prior to IR, without DNA double strand breaks
compound,measurement,setting,value
"OO [H2O2, hydrogen peroxide]",response to H2O2 alone,[1],extreme resistance
same,effect of H2O2 prior to IR,[1]; [3],enhanced cytotoxicity
same,response to H2O2 alone,[2],extreme resistance
same,effect of H2O2 prior to IR,[2]; [3],enhanced cytotoxicity
